# Test results taken from ChEMBL document CHEMBL1201862, “PubChem BioAssay data set” (2004).
# Calls of active or inactive are those of the source. Rule as the data show it, for most assays here: actives have a measured EC50 and inactives only a lower limit.
# Tests used:
# [1] = microbe, parasite or virus in culture; type: functional; conditions: Mycobacterium tuberculosis
# [2] = target: T1, Calpain-2 catalytic subunit (Sus scrofa, UniProt P43367); test: m-calpain protease blockers, concentration series – biochemical, fluorogenic peptide substrate, dose response (AID 1420); type: functional
# T1 sequence (P43367 whole entry): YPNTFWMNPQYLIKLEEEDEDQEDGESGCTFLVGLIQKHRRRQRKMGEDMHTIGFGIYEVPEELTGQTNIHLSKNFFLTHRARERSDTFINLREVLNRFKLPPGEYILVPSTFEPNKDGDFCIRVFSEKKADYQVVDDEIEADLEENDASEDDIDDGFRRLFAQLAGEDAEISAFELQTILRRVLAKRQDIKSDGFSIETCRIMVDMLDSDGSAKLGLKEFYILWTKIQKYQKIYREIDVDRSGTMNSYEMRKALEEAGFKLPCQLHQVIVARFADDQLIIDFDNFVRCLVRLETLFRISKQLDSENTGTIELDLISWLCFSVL
# [3] = target: T2, Corticotropin-releasing factor receptor 2/Corticotropin-releasing factor-binding protein (Homo sapiens, UniProt P24387+Q13324); test: activators of CRF receptor 2 with binding protein – uHTS hits, confirmation (AID 602473); type: functional; conditions: read-out: EC50_Mean
# T2 sequence (Q13324 whole entry): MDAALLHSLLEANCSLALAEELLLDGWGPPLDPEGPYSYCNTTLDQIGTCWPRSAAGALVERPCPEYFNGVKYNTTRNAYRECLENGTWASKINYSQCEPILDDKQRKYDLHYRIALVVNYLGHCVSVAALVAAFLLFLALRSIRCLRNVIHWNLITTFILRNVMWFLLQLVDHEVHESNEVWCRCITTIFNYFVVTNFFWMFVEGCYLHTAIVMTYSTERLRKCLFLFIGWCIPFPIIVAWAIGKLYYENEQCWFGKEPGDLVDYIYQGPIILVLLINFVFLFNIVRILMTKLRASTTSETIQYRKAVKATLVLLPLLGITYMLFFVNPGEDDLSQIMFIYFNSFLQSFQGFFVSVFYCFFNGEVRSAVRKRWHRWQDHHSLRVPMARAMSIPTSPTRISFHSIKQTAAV
# T2 sequence (P24387 whole entry): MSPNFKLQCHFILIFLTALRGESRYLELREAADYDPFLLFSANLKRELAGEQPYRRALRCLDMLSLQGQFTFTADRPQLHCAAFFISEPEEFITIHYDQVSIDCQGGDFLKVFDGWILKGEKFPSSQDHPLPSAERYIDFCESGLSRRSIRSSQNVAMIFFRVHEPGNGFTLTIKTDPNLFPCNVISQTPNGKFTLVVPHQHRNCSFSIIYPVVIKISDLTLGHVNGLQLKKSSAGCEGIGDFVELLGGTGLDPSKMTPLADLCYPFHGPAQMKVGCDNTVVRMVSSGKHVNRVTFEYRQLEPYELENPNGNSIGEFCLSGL
# [4] = target: T2, Corticotropin-releasing factor receptor 2/Corticotropin-releasing factor-binding protein; test: Dose Response confirmation of uHTS hits for small molecule antagonists of the CRF-binding protein and CRF-R2 receptor complex.; type: functional; conditions: read-out: IC50_Mean
# [5] = target: T3, Heat shock factor protein 1 (Mus musculus, UniProt P38532); test: enhancement of HSF1-driven luciferase signal – cell-based, NIH3T3, luminescence, dose retest, confirmation (AID 435004); type: functional;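 also: stress induced by proteasome inhibitor MG132 added 30 min after compound; luciferase reporter driven by HSF1 response element in NIH3T3 cells; actives raise luminescence as potentiators of the MG132 stress response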
# T3 sequence (P38532 whole entry): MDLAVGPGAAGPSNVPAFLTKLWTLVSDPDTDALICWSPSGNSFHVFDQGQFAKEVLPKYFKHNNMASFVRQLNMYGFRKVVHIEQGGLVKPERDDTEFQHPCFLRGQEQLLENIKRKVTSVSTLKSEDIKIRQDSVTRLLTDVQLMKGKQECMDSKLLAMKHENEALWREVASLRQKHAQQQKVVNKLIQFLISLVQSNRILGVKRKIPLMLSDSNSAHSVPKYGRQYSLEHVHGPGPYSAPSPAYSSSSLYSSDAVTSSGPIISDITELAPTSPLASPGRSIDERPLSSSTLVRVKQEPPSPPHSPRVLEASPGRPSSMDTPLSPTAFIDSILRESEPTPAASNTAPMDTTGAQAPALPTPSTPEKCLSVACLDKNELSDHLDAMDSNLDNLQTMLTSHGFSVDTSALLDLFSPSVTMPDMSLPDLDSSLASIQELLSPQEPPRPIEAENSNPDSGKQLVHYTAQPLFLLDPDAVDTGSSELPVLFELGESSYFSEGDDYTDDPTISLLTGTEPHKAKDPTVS
# [6] = target: Luciferin 4-monooxygenase (Photinus pyralis, UniProt P08659); test: inhibition of purified Photinus pyralis luciferase – biochemical, luminescence, dose response (AID 1891)
# [7] = Luminescence Cell-Based Dose Confirmation HTS to Identify Inhibitors of Platelet Dense Granule Release. [Related pubchem assays: 1663 (Primary HTS), 1678 (Summary of Project)]; type: functional
# [8] = target: FAD-linked sulfhydryl oxidase ALR (Homo sapiens, UniProt P55789); test: ALR-catalysed DTT oxidation blockers – biochemical, H2O2 detection, luminescence, cherry-pick, dose response (AID 493248)
# [9] = Trypanosoma cruzi growth suppression in host cells – NIH3T3 host cells, beta-gal luminescence, confirmation (AID 2044); type: functional, cell-based;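 also: intracellular parasites grown in NIH/3T3 mouse fibroblasts as host cells; luminescent beta-galactosidase reporter signal from transgenic T. cruzi replicating inside host cells; inhibitors lower the luminescence signal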
# [10] = NIH3T3 cell viability loss – ATP luminescence, mouse fibroblasts, counter-screen, dose response (AID 2010); type: functional, cell-based;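 also: cells exposed to compound for about 90 hours before reading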
# [11] = target: T3, Heat shock factor protein 1; test: decrease of HSF1-responsive luciferase luminescence – cell-based, NIH3T3, dose retest, confirmation (AID 2382); type: functional;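 also: NIH3T3 fibroblasts with HSF1-driven luciferase reporter stressed by proteasome inhibitor MG132; luminescence from HSF1-driven luciferase expression after 8 hours of MG132 stress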
# [12] = target: Heat shock protein HSP 90-alpha (Homo sapiens, UniProt P07900); type: functional, organism-based
# [13] = viability of uninfected HEp-2 cells – cell-based, HTS, cytotoxicity control for RSV inhibitor project, dose response (AID 2410); type: functional; conditions: human respiratory syncytial virus
# [14] = non-specific 3'UTR reporter inhibition in Clone20-Shn3RL – cell-based, Renilla luciferase, cherry-picked, counter-screen for Shn3 inhibitor project, dose response (AID 624133); type: functional
# H4 = test: Luminescence Cell-Based Dose Response HTS to Identify Activators of 5'UTR Stem-Loop Driven Prion Protein mRNA Translation in H4 Neuroglioblastoma Cells. [Related pubchem assays: 1829 (Project Summary), 1814 (Primary HTS)]; type: functional; conditions: Homo sapiens
# [15] = Luminescence Cell-Based Dose Response HTS to Identify Activators of Luciferase Translation or Activity in H4 […] Cells. [Related pubchem assays: 1829 (Project Summary), 1814 (Primary HTS)]; type: functional
# [16] = Luminescence Cell-Based Dose Confirmation HTS to Identify Activators of 5'UTR Stem-Loop Driven Alpha-Synuclein mRNA Translation in H4 Neuroglioblastoma Cells. [Related pubchem assays: 1829 (Project Summary), 1814 (Primary HTS)]; type: functional
# Sequence of Luciferin 4-monooxygenase (P08659 whole entry): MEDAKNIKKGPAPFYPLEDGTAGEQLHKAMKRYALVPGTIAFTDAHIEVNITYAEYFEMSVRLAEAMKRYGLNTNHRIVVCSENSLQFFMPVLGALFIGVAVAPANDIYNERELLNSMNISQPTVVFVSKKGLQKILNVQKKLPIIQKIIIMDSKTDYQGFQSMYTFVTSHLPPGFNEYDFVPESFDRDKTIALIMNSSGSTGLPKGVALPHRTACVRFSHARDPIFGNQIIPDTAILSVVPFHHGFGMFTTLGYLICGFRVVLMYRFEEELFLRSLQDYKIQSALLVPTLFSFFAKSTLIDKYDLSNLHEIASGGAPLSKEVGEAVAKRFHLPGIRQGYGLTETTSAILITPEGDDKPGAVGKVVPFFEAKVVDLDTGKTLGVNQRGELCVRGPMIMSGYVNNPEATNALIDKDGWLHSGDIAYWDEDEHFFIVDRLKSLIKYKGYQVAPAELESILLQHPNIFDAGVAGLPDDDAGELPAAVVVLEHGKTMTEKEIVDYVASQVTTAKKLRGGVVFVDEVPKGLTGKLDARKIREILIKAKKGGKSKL
# Sequence of FAD-linked sulfhydryl oxidase ALR (P55789 whole entry): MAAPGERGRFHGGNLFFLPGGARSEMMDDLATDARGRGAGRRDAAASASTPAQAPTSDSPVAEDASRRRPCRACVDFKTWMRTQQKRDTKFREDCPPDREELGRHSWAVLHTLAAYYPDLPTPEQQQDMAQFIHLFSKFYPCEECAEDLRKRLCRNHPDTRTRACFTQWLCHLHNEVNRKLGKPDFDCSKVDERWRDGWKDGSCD
structure (smiles),measurement,setting,value
Nc1c(C(=O)OCC2CCCO2)c2nc3ccccc3nc2n1C1CCCC1 (centres undefined),CC50,[1],38.3 µM (active)
COc1ccc(/C=C/C(=O)NC(=S)Nc2cc3oc4ccccc4c3cc2OC)cc1,IC50,[2],> 50 µM (not active)
COc1ccccc1N1CCN(CC(=O)Nc2c(C)n[nH]c2C)CC1,EC50,[3],> 53 µM (inactive)
same,IC50,[4],> 47.1 µM (inactive)
COc1cccc(C2C([N+](=O)[O-])=C(N)Oc3c2c(=O)oc2ccccc32)c1 (centres undefined),EC50,[5],> 260 µM (inactive)
COc1cc2cnc(-c3ccccc3)c(-c3ccc(C(F)(F)F)cc3)c2cc1OC,CC50,[1],> 40 µM (active)
Cc1ccc(C(=O)NCCCNc2ccccc2[N+](=O)[O-])cc1,IC50,[2],25.2 µM (not active)
O=C(Cn1cc(C(=O)c2ccco2)c2ccccc21)Nc1ccccc1,IC50,[2],3.26 µM (not active)
O=C(Nc1nccs1)C1CCN(S(=O)(=O)c2ccc(Cl)c(C(F)(F)F)c2)CC1,EC50,[6],> 112 µM (not active)
same,EC50,[7],> 112 µM (not active)
O=C(c1ccccc1Br)N1CCN(c2ccccc2)CC1,EC50,[5],> 260 µM (inactive)
COc1ccc(C2=NN(C(=O)CSC3=NN4CCCC(=O)N=C4S3)C(c3cccc(OC)c3OC)C2)cc1 (centres undefined),EC50,[6],> 112 µM (not active)
same,EC50,[7],> 112 µM (not active)
Cc1ccccc1Nc1nc(N)nc(CSc2ccccc2)n1,EC50,[5],19.1 µM (active)
Cc1c(NC(=O)c2c(N)n(-c3ccccc3)c3nc4ccccc4nc23)c(=O)n(-c2ccccc2)n1C,EC50,[6],> 112 µM (not active)
same,EC50,[7],> 112 µM (not active)
Cc1ccc(NC2c3ncccc3C(=O)N2C2CCCCC2)cc1 (centres undefined),EC50,[5],> 260 µM (inactive)
same,AC50,[8],2.07 µM (active)
C=CCN(C(=O)CSc1nc2c(sc3ccccc32)c(=O)n1CCN(CC)CC)c1ccccc1,CC50,[1],31.9 µM (active)
same,EC50,[9],0.606 µM (active)
same,EC50,[10],11 µM (active)
Cn1c(CNc2cccc(Cl)c2)nnc1SCC#N,EC50,[5],> 260 µM (inactive)
COc1ccc(C(=N)NOC(=O)Cc2ccccc2[N+](=O)[O-])cc1,IC50,[2],10.1 µM (not active)
CCSc1nnc(NC(=O)Cc2cccc(OC)c2)s1,IC50,[2],2.28 µM (not active)
CCN(CC)c1nc(NN)nc(Nc2ccc(C)c(Cl)c2)n1,CC50,[1],31.8 µM (active)
NS(=O)(=O)c1ccc(NC(=O)COC(=O)C23CC4CC(CC(C4)C2)C3)cc1,IC50,[2],3.33 µM (not active)
CCCc1cc(-c2nnc(S)n2Cc2ccccc2)cs1,IC50,[2],22.1 µM (not active)
Cc1ccc(C)n1-c1ccc(C(=O)NN=C2CCCC2)cc1,EC50,[6],> 112 µM (not active)
same,EC50,[7],> 112 µM (not active)
COc1cc(OC)nc(Oc2ccccc2C(=O)Oc2ccc(Cl)cc2)n1,CC50,[1],> 40 µM (active)
same,EC50,[11],> 195 µM (not active)
CSc1nc2sc(-c3ccccc3)cc2c(=O)n1N,EC50,[6],0.191 µM (active)
same,EC50,[7],< 0.701 µM (active)
CCOC(=O)c1c(COc2ccccc2)oc2ccc(O)cc12,EC50,[5],> 260 µM (inactive)
O=S(=O)(NC1CCCCCC1)c1ccc(Br)s1,AC50,[12],17.2 µM (active)
CC(=O)c1cccc(NC(=O)c2c(F)c(F)c(F)c(F)c2F)c1,IC50,[2],17.2 µM (not active)
Cc1ccc(CNC(=O)CSc2ccsc2[N+](=O)[O-])cc1,EC50,[5],31.5 µM (active)
Cc1ccc(C2=NC(C)(C)N=C2SCC(=O)Nc2ccc(Cl)cc2)cc1,AC50,[12],15.1 µM (active)
same,CC50,[13],30.5 µM (active)
CC1(C)Cc2c(sc3[nH]c(=O)n(CC(=O)NCC4CCCO4)c(=O)c23)CO1 (centres undefined),EC50,[3],> 53 µM (inactive)
same,IC50,[4],> 47.1 µM (inactive)
CN(CC(=O)NCc1ccc2c(c1)OCO2)S(=O)(=O)c1ccc(Br)s1,AC50,[14],28.2 µM (active)
COc1ccc(Cc2nnc(NC(=O)c3c(-c4ccccc4)noc3C)s2)cc1,EC50,[6],> 112 µM (not active)
same,EC50,[7],> 112 µM (not active)
Oc1ccc(N=Nc2n[nH]c(-c3ccc(Cl)cc3)n2)cc1,CC50,[1],28.1 µM (active)
same,EC50,H4,> 120 µM (not active)
same,EC50,[15],8.25 µM (active)
same,EC50,[16],> 120 µM (not active)
Cc1nc(NC(=O)c2ccccc2)sc1C1(C)CC(c2ccc(OC(F)(F)F)cc2)=NO1 (centres undefined),CC50,[1],> 40 µM (active)
O=C(NCc1cccs1)c1ccc(C[S+]([O-])Cc2cccc(Cl)c2)o1 (centres undefined),EC50,[3],> 53 µM (inactive)
same,IC50,[4],> 47.1 µM (inactive)
CCc1cc(C(=O)NNC(=O)CCl)sc1C,CC50,[1],23.8 µM (active)
Cc1cccc(NC(=O)CN2CCC(C(=O)c3ccc4c(c3)OCCO4)CC2)c1,EC50,[6],> 112 µM (not active)
same,EC50,[7],> 112 µM (not active)
CCCC1CC(C)(c2csc(Nc3ccc(OCC)cc3)n2)OC1=O (centres undefined),CC50,[1],> 40 µM (active)
COc1ccc(CC(=O)Nc2cccc(-c3cn4ccccc4n3)c2)cc1,EC50,[6],> 112 µM (not active)
same,EC50,[7],> 112 µM (not active)
COc1ccc(CN(CCc2c[nH]c3ccccc23)Cc2ccc(OC)cc2)cc1,EC50,[3],> 53 µM (inactive)
same,IC50,[4],> 47.1 µM (inactive)
O=C1CCC(C(=O)Nc2ccccc2N2CCOCC2)=NN1,EC50,[3],> 53 µM (inactive)
same,IC50,[4],> 47.1 µM (inactive)
CCOC(=O)N1CCN(C(=O)Cn2cnc3ccccc3c2=O)CC1,EC50,[3],> 53 µM (inactive)
same,IC50,[4],> 47.1 µM (inactive)
COC(=O)/C=c1/s/c(=C(\C#N)C(=O)NCc2ccco2)n(-c2ccccc2)c1=O,EC50,[3],> 53 µM (inactive)
same,IC50,[4],> 47.1 µM (inactive)
CSC(=S)N/N=C/c1ccccc1,CC50,[1],> 40 µM (active)
CCN(CC)c1ccc(/C=N\NC(=O)c2cccc3cc[nH]c23)cc1,EC50,[3],> 53 µM (inactive)
same,IC50,[4],> 47.1 µM (inactive)
C=CCn1c(COc2ccc(CC)cc2)nnc1SC/C(O)=C(\C#N)c1nc2ccccc2[nH]1,EC50,[5],> 260 µM (inactive)
CCOC(=O)Cn1/c(=N/C(=O)CSC(C)=O)sc2ccccc21,EC50,[6],> 112 µM (not active)
same,EC50,[7],> 112 µM (not active)
C(=N\c1nc2ccccc2[nH]1)/c1cccs1,EC50,[6],16.2 µM (active)
same,EC50,[7],> 112 µM (not active)
NC(=S)N/N=C/c1coc2c(ccc3ccccc32)c1=O,IC50,[2],24.6 µM (not active)
